Patent US11820756B2, “Bradykinin B2 receptor antagonists” (Pharvaris Netherlands B.V., priority 2017, dated 2023)

Biological target: T1, human bradykinin B2 receptor (hB2R) (Homo sapiens, UniProt P30411)
T1 sequence (P30411 1-391): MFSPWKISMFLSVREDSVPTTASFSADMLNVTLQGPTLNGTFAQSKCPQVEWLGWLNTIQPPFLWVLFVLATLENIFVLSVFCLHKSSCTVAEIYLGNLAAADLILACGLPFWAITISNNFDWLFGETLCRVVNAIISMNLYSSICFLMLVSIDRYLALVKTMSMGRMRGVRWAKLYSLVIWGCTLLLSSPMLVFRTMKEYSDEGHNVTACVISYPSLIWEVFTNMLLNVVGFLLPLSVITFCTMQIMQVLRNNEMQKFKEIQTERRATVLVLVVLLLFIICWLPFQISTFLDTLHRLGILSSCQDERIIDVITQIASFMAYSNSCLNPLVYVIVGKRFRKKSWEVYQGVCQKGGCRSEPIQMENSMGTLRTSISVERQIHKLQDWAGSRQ
Assay: cell-based human bradykinin B2 receptor calcium mobilization (hB2R-CaM) assay
Settings: HTS041C cells, bradykinin at EC80, calcium mobilization; read-out: IC50-value towards human bradykinin B2 receptor (hB2R)
Source text: The following cell-based human bradykinin B2 receptor calcium mobilization (hB2R-CaM) assay was used to determine the antagonistic activity of compounds selected from the example compounds Nos. 1 to 168 towards human bradykinin B2 receptor (hB2R). The assay is defined herein as a standard in vitro B2 receptor activity assay, which can be used to determine IC50 values of the compounds according to the present invention, e. g. the compounds shown in Examples 1-11.
The antagonistic activity of compounds according to the present invention was investigated with the hB2R-CaM assay using the B2 Bradykinin Receptor Stable Cell Line HTS041C (Eurofins, St. Charles MO) and the FLIPR Calcium 6 Assay Kit (Molecular Devices, Wokingham, UK) according to the instructions of the providers. CaM assay measurements were performed with a Flexstation 3 System (Molecular Devices) which allows the precise addition of compounds (B2R antagonists) and bradykinin (B2R agonist) to the cells and adjacent continuous recording of the time-dependent CaM assay signals.
HTS041C cells were cultured in high glucose DMEM cell culture medium (Lonza) supplemented with 10% heat-inactivated FBS (PAN Biotech), 10 mM HEPES, Penicillin/Streptomycin (200 U/mL, 200 μg/mL), 1× non-essential amino acids (Lonza), and 250 μg/mL G418 (Invivogen) in cell incubator at 37° C. in a 5% CO2 atmosphere.
One day before the CaM assay experiments cells were seeded in 200 μL DMEM cell culture medium with reduced FBS (5%) and without G418 on clear bottom black 96 well plates (ThermoFisher #165305). Cell starvation was carried out by incubation (37° C., 5% CO2) of 70.000 cells/well for 24 h to 28 h. Immediately prior calcium dye-loading the medium was carefully aspirated and cells were washed with Hank's balanced salt solution (HBSS, Gibco) containing Ca^2+, Mg^2+ and 20 mM HEPES, adjusted to pH 7.4 (HBSS+). Calcium Dye Loading of the Cells:
For calcium dye-loading one FLIPR 6 assay aliquot was dissolved in 20 mL HBSS+. 150 μL of the dye loading solution was added to cell plate and incubated for 120 min at 37° C. and 5% CO2. After dye loading the cell plate was immediately transferred to the pre-warmed (37° C.) Flexstation 3 System for CaM assaying.
Freshly prepared compound (B2 receptor antagonists) dilution series (8 pt, n=2) and bradykinin (B2 receptor agonist) solution in non-binding plates (Costar) were transferred to the Flexstation System (source plate) shortly before starting the experiment. Bradykinin was added in EC80 concentration determined in n>3 preliminary experiments with 8 pt concentration response curves (n=8)). CaM assay was executed by Flexstation 3 System starting with recording of calcium-sensitive dye fluorescence in bottom-read Flex modus with ex/em=485 nm/525 nm, cut off(em)=[…]. After 20 s, 50 μL of 4-fold concentrated compound dilutions were added to the cells resulting in a final DMSO (Sigma) concentration of 0.1% in the cell plate. CaM signals were monitored for 80 s after additions for detection of potential agonistic activities. Prior to bradykinin stimulus compound- and vehicle-treated cells were incubated for 25 min at 37° C. within the Flexstation System. Then 50 μL of a 5-fold concentrated bradykinin solution (HBSS+, 0.1% DMSO) was added to trigger CaM signals (Read out: Max-Min values) which were measured for 80 s post bradykinin stimulus.
IC50 determinations were performed by 4 parameter logistic model curve fitting of the 8 pt (n=2) compound concentration response curves using XLFIT (IDBS) software.
Relative IC50 values of the test compounds were determined with the same hB2R-CaM assay as in Example 12.

IC50 [nM] | SMILES
251 to 1000 | CC(=O)C(=O)N[C@@H](C)c1cc(F)cc(Cl)c1COc1cccc2c(-n3cc(F)cn3)cc(C)nc12 [Compound 55]
51 to 250 | Cc1cc(-n2cc(F)cn2)c2cccc(OCc3c(Cl)cc(F)cc3[C@H](C)NC(=O)c3c(C)noc3C)c2n1 [Compound 87]
51 to 250 | Cc1cc(-n2cc(F)cn2)c2cccc(OCc3c(Cl)cc(F)cc3[C@H](C)NC(=O)[C@@H](O)CC(C)C)c2n1 [Compound 46]
51 to 250 | Cc1cc(-n2cc(F)cn2)c2cccc(OCc3c(Cl)cc(F)cc3[C@H](C)NC(=O)[C@H]3COC(C)(C)O3)c2n1 [Compound 62]
≤ 50 | CCOCC(=O)N[C@@H](C)c1cc(F)cc(Cl)c1COc1cccc2c(-c3ncnn3C)cc(C)nc12 [Compound 84]
51 to 250 | Cc1cc(-n2cc(F)cn2)c2cccc(OCc3c(Cl)cc(F)cc3[C@H](C)NC(=O)[C@@H](O)C(C)C)c2n1 [Compound 22]
≤ 50 | CC[C@H](NC(=O)c1cocn1)c1cc(F)cc(Cl)c1COc1cccc2c(-c3ncnn3C)cc(C)nc12 [Compound 155]
≤ 50 | Cc1cc(-n2cc(F)cn2)c2cccc(OCc3c(Cl)cc(F)cc3[C@H](C)N(C)C(=O)C(C)(C)O)c2n1 [Compound 101]
≤ 50 | Cc1cc(-c2ncnn2C)c2cccc(OCc3c(Cl)cc(F)cc3[C@H](C)NC(=O)COC(F)(F)F)c2n1 [Compound 116]
51 to 250 | CC[C@@H](O)C(=O)N[C@@H](C)c1cc(F)cc(Cl)c1COc1cccc2c(-n3cc(F)cn3)cc(C)nc12 [Compound 24]
251 to 1000 | Cc1cc(-n2cnc(C)n2)c2cccc(OCc3c(Cl)cc(F)cc3[C@H](C)NC(=O)[C@@H](C)O)c2n1 [Compound 98]
251 to 1000 | Cc1cc(-n2cc(F)cn2)c2cccc(OCc3c(Cl)cc(F)cc3[C@H](C)NC(=O)[C@H](O)CC(C)C)c2n1 [Compound 47]
≤ 50 | Cc1cc(-c2ncnn2C)c2cccc(OCc3c(Cl)cc(F)cc3[C@H](C)NC(=O)c3cc(C)on3)c2n1 [Compound 127]
≤ 50 | Cc1cc(-n2ncnc2C)c2cccc(OCc3c(Cl)cc(F)cc3[C@H](C)NC(=O)CC(F)(F)F)c2n1 [Compound 179]
≤ 50 | Cc1cc(-c2ncnn2C)c2cccc(OCc3c(Cl)cc(F)cc3[C@H](C)NC(=O)[C@@H](C)OC(F)F)c2n1 [Compound 85]
≤ 50 | Cc1cc(-n2cc(F)cn2)c2cccc(OCc3c(Cl)cc(F)cc3[C@H](CO)NC(=O)COC(F)F)c2n1 [Compound 106]
≤ 50 | Cc1cc(-c2[nH]ncc2C)c2cccc(OCc3c(Cl)cc(F)cc3[C@H](C)NC(=O)c3cnco3)c2n1 [Compound 187]
≤ 50 | Cc1cc(-c2ccnn2C)c2cccc(OCc3c(Cl)cc(F)cc3[C@H](C)NC(=O)CO)c2n1 [Compound 194]
51 to 250 | Cc1cc(-n2cc(F)cn2)c2cccc(OCc3c(Cl)cc(F)cc3[C@H](C)NC(=O)[C@H]3COC(=O)N3)c2n1 [Compound 112]
≤ 50 | [2H][C@@](C)(NC(=O)[C@@H](C)F)c1cc(F)cc(Cl)c1COc1cccc2c(-c3ncnn3C)cc(C)nc12 [Compound 211]
≤ 50 | CC[C@H](NC(=O)c1coc(C)n1)c1cc(F)cc(Cl)c1COc1cccc2c(-c3ncnn3C)cc(C)nc12 [Compound 149]
≤ 50 | Cc1cc(-n2nccn2)c2cccc(OCc3c(Cl)cc(F)cc3[C@H](C)NC(=O)[C@H]3CCOC3)c2n1 [Compound 30]
≤ 50 | CCn1ncnc1-c1cc(C)nc2c(OCc3c(Cl)cc(F)cc3[C@H](C)NC(=O)c3coc(C)n3)cccc12 [Compound 142]
51 to 250 | CC[C@H](O)C(=O)N[C@@H](C)c1cc(F)cc(Cl)c1COc1cccc2c(-n3nccn3)cc(C)nc12 [Compound 33]
≤ 50 | [2H][C@@](C)(NC(=O)CC(F)(F)F)c1cc(F)cc(Cl)c1COc1cccc2c(-c3ncnn3C)cc(C)nc12 [Compound 181]
51 to 250 | Cc1cc(-n2cc(F)cn2)c2cccc(OCc3c(Cl)cc(F)cc3[C@H](C)NC(=O)c3ccncc3)c2n1 [Compound 125]

Further lines, the molecule ahead of its results:

SMILES | IC50 [nM]
[2H][C@@](C)(NC(=O)C(C)(F)F)c1cc(F)cc(Cl)c1COc1cccc2c(-c3ncnn3C)cc(C)nc12 [Compound 182] | ≤ 50
Cc1cc(-n2cc(F)cn2)c2cccc(OCc3c(Cl)cc(F)cc3[C@H](C)NC(=O)C(C)(C)O)c2n1 [Compound 23] | 51 to 250
Cc1cc(-n2cc(F)cn2)c2cccc(OCc3c(Cl)cc(F)cc3[C@H](C)NC(=O)[C@](C)(O)C(F)(F)F)c2n1 [Compound 53] | 251 to 1000
Cc1cc(-n2ncnc2C)c2cccc(OCc3c(Cl)cc(F)cc3[C@H](C)NC(=O)c3cnco3)c2n1 [Compound 95] | ≤ 50
Cc1cc(-n2cc(F)cn2)c2cccc(OCc3c(Cl)cc(F)cc3[C@H](C)NC(=O)c3cc(C)on3)c2n1 [Compound 88] | 51 to 250
CO[C@@H](C)C(=O)N[C@@H](C)c1cc(F)cc(Cl)c1COc1cccc2c(-n3cc(F)cn3)cc(C)nc12 [Compound 16] | ≤ 50
Cc1cc(-c2ncnn2C)c2cccc(OCc3c(Cl)cc(F)cc3[C@H](C)NC(=O)[C@H](C)F)c2n1 [Compound 203] | ≤ 50
Cc1cc(-n2cc(F)cn2)c2cccc(OCc3c(Cl)cc(F)cc3[C@H](C)NC(=O)C(CO)CO)c2n1 [Compound 71] | ≤ 50
Cc1cc(-c2ncnn2C)c2cccc(OCc3c(Cl)cc(F)cc3[C@H](C)NC(=O)C3CCCCC3)c2n1 [Compound 144] | ≤ 50
CC[C@H](NC(=O)C(F)F)c1cc(F)cc(Cl)c1COc1cccc2c(-n3cc(F)cn3)cc(C)nc12 [Compound 151] | 51 to 250
CCc1ncnn1-c1cc(C)nc2c(OCc3c(Cl)cc(F)cc3[C@H](C)NC(=O)c3cocn3)cccc12 [Compound 170] | ≤ 50
[2H][C@@](C)(NC(=O)CC(F)F)c1cc(F)cc(Cl)c1COc1cccc2c(-n3ncnc3C)cc(C)nc12 [Compound 209] | ≤ 50
Cc1cc(-n2cc(F)cn2)c2cccc(OCc3c(Cl)cc(F)cc3[C@H](C)NC(=O)C[C@@H](C)O)c2n1 [Compound 26] | ≤ 50
Cc1cc(-n2cc(F)cn2)c2cccc(OCc3c(Cl)cc(F)cc3[C@H](C)NC(=O)[C@@H]3CC[C@H](C)O3)c2n1 [Compound 132] | ≤ 50
Cc1cc(-n2ncnc2C)c2cccc(OCc3c(Cl)cc(F)cc3[C@H](C)NC(=O)c3cocn3)c2n1 [Compound 159] | ≤ 50
Cc1cc(-n2cc(F)cn2)c2cccc(OCc3c(Cl)cc(F)cc3[C@H](C)N(C)C(=O)CO)c2n1 [Compound 102] | ≤ 50
Cc1cc(-n2cc(F)cn2)c2cccc(OCc3c(Cl)cc(F)cc3[C@H](C)NC(=O)[C@H]3CCCO3)c2n1 [Compound 20] | ≤ 50
[2H][C@@](C)(NC(=O)CC(F)(F)F)c1cc(F)cc(Cl)c1COc1cccc2c(-n3ncnc3C)cc(C)nc12 [Compound 208] | ≤ 50
Cc1cc(-c2[nH]ncc2C)c2cccc(OCc3c(Cl)cc(F)cc3[C@H](C)NC(=O)C(F)F)c2n1 [Compound 186] | 51 to 250
CCn1ncnc1-c1cc(C)nc2c(OCc3c(Cl)cc(F)cc3[C@H](C)NC(=O)c3ccon3)cccc12 [Compound 141] | ≤ 50
Cc1cc(-n2cc(F)cn2)c2cccc(OCc3c(Cl)cc(F)cc3[C@H](C)NC(=O)[C@@](C)(O)C(F)(F)F)c2n1 [Compound 52] | 251 to 1000
